Molecules are shown by their SMILES. Where two headings read alike, the source gives them in different places.

One assay concerns the target human β2-AR (Homo sapiens, UniProt P07550). The assay is described as follows: β2-AR binding, [3H]CGP-12177 displacement on HEK cell membranes. The following applies: relative to (R,R)-1 or (R,S)-1.
Assay [1] relates to single ventricular myocytes. Kind of assay: Cardiomyocyte contractility model. The class given is cell-based, rat.
For the next assay, the target named is β1-AR (Rattus norvegicus, UniProt P18090). Kind of assay: β1-AR binding, [3H]CGP-12177 displacement on rat cortical membranes.
The subject of assay [2] is single ventricular myocytes. To be noted: read-out: EC50(cardio); previous data; ref [10]; cited from earlier work.

Sequence of β1-AR (P18090 whole entry): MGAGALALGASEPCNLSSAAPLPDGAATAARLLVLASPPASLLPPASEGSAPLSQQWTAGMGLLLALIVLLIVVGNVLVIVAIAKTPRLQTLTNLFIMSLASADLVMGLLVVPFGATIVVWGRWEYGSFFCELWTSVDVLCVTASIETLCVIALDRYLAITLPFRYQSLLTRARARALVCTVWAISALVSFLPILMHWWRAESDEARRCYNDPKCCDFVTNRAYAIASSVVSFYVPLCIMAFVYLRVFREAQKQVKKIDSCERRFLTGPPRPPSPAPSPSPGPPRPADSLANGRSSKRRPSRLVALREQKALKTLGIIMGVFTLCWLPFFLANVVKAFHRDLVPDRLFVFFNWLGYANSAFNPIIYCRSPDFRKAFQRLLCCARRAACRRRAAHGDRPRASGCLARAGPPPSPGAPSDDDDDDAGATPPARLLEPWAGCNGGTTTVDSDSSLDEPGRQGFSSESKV
Sequence of human β2-AR (P07550 whole entry): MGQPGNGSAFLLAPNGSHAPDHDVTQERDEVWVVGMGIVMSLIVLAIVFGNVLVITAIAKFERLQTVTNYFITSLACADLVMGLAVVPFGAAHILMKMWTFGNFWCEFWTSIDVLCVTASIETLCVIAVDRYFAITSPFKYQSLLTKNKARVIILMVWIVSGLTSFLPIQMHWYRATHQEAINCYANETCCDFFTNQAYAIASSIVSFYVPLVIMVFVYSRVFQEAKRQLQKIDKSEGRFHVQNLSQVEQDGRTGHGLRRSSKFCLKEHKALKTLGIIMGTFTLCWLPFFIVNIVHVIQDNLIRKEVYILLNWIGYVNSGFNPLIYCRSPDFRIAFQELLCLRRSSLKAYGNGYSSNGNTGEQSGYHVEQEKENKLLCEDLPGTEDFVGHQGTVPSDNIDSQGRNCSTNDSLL

Take `CC[C@@H](Cc1ccc(O)cc1)NC[C@H](O)c1cc(O)cc(O)c1` (racemic) [(R,S)-52]: the “Ki(β2-AR) fold greater than corresponding isomer of 1” value on human β2-AR was found to be 1.5 fold.

For `C[C@H](Cc1ccc(O)cc1)NC[C@H](O)c1cc(O)cc(O)c1` [(R,R)-1, (R,R)-fenoterol], in assay [1] (read-out: EC50cardio, cardiomyocyte contractility), the EC50 worked out at 73 ± 18 nM.

In the case of `CC[C@H](Cc1ccc(O)cc1)NC[C@H](O)c1cc(O)cc(O)c1` [(R,R)-52, (R,R-(−)-5-(1-Hydroxy-2-(1-hydroxyphenyl)butan-2-ylamino)ethyl) benzene-1,3-diol], the “Ki(β1-AR) of (R,R)-isomer fold larger than (R,S)-isomer” value on β1-AR worked out at 4 fold. In addition, the “Ki(β1-AR) fold higher than corresponding isomer of 1” value on β1-AR (relative to (R,R)-1 or (R,S)-1) is 28 fold. Further, the “antagonism of the activity of zinterol” value in assay [1] (cardiomyocyte contractility model, data not shown) is recorded as “did not antagonize”. Besides, in assay [1] (initial data, data not shown, indicates activation of both GS and Gi proteins), the “sensitivity of cardiomyocyte contractility activity to pertussis toxin” value was “sensitive to pertussis toxin”. Further, at human β2-AR, the “Ki(β2-AR) fold greater than corresponding isomer of 1” value was ~ 4 fold.

In the case of `C[C@H](Cc1ccc(O)cc1)NC[C@@H](O)c1cc(O)cc(O)c1` [(S,R)-1], the EC50 in assay [2] is 2340 nM.

As to `COc1ccc(C[C@@H](C)NC[C@@H](O)c2cc(O)cc(O)c2)cc1` [(S,R)-2], the EC50 in assay [2] was 3160 nM.

Source of the values: paper PMC2832585 (Bioorganic & medicinal chemistry, 2009).
